The values below come from patent US20170304329A1 (THE UNIVERSITY OF KANSAS, priority 2014, published 2017).

The structures appear in SMILES notation. Where “and” joins values, the source holds several entries; their conditions need not be identical. Equal values may be shown once. Read-outs that look alike come from different tables or passages of the source.

One data set has as its system β-glucuronidase. Here is the method:
Based on human excretion data [Kellner et al, Arzneimittel-Forschung. 31 (8A):1337-1353], as well as evidence that bladder cancer patients have increased glucuronidase activity in urine [Paigen, K., Peterson, J., Paigen B. (1984) Role of urinary β-glucuronidase activity in human bladder cancer. Cancer Res 44:3620-3623], we conducted in vitro metabolism studies to characterize the stability of ciclopirox glucuronide in urine (at a concentration of 150 μM) obtained from bladder cancer patients compared to control urine collected from healthy volunteers.

The next data set deals with 253JBV cells. Description: Cell proliferation, hexosaminidase assay. It is filed as cell-based, human. The note with it: up to 72 h. Here is the method:
(§1) To determine the effect of CPX on bladder cancer cell proliferation in T24 (MIBC) and 253-JBV (NMIBC) cells, 5,000 cells per well were seeded on to 96-well plates and grown overnight. The cells were then treated with increasing doses of CPX in RPMI media containing 10% FBS. Analysis of cell proliferation after the treatment period was estimated by the hexosaminidase assay. Briefly, the medium was removed and hexosaminidase substrate solution in citrate buffer pH 5 (7.5 mM), p-nitrophenol-N-acetyl-beta-D-glucosaminidase (Sigma Aldrich) was added at 75 μL per well. The plate was incubated at 37° C. in 100% humidity for 30 minutes. The reaction was stopped with 112.5 μL of 50 mM glycine containing 5 mM of EDTA (pH 10.4). The absorbance was measured at 405 nm. Experiments were conducted at n=6, and then repeated at least three times. The data were analyzed as percent of control, where the control wells were treated with equivalent amounts of DMSO alone. For IC50 calculations, a plot between the drug concentration and hexosaminidase activity was generated and the data was fitted either linearly or exponentially. The best fit was used for further processing of data.
(§2) We determined and compared the effect of CPX with CPX-POM and CPX-glucuronide in vitro by performing proliferation assay. To determine the effect of CPX, CPX-POM and CPX-glucuronide on bladder cancer cell proliferation in T24 (MIBC) and 253-JBV (NMIBC) cells, 5,000 cells per well were seeded on to 96-well plates and grown overnight. The cells were then treated with increasing doses of CPX, CPX-POM and CPX-glucuronide in RPMI media containing 10% FBS. Analysis of cell proliferation after the treatment period was estimated by the hexosaminidase assay. Briefly, the medium was removed and hexosaminidase substrate solution in citrate buffer pH 5 (7.5 mM), p-nitrophenol-N-acetyl-beta-D-glucosaminidase (Sigma Aldrich) was added at 75 μL per well. The plate was incubated at 37° C. in 100% humidity for 30 minutes. The reaction was stopped with 112.5 μL of 50 mM glycine containing 5 mM of EDTA (pH 10.4). The absorbance was measured at 405 nm.
(§3) Experiments were conducted at n=6, and then repeated at least three times. The data were analyzed as percent of control, where the control wells were treated with equivalent amounts of DMSO alone. For IC50 so calculations, a plot between the drug concentration and hexosaminidase activity was generated and the data was fitted either linearly or exponentially.

For another data set, the system named is T24 cells. The data set can be described thus: Cell proliferation, hexosaminidase assay. It is filed as cell-based, human. The note with it: up to 72 h. Here is the method: as §1, §2, §3
The nature of data set [1]: Study 208-02: plasma CPX pharmacokinetics after IV and oral CPX-O and CPX-POM. It is filed as in vivo, male C57/Bl6 mice. Conditions: plasma CPX, mice, single 10 mg/kg IV. The text has this: Study 208-02. Bioavailability of Ciclopirox Following Oral and Intravenous Administration of Ciclopirox-POM Prodrug in the Mouse. […] The objectives of this study were to characterize the rate and extent of CPX-POM metabolism and assess the feasibility of orally administered ciclopirox-POM prodrug in support of future cancer proof of principle studies.

The nature of data set [2]: Study 11428: plasma CPX pharmacokinetics after IV CPX-POM, SQ CPX-POM and oral CPX-O. It is filed as in vivo, male Sprague-Dawley rats. The note with it: plasma CPX, rats, single 30 mg/kg oral; for AUC: plasma, po.
Excerpt: (§4) Intravenous CPX-POM was used as the reference in characterizing the bioavailability of ciclopirox following SQ ciclopirox-POM prodrug in this specie.
Data set [3] is described as follows: Study 11429: plasma CPX pharmacokinetics after IV CPX-POM, SQ CPX-POM and oral CPX-O. It is filed as in vivo, male beagle dogs. Conditions: plasma CPX, dogs, single 9 mg/kg oral; for AUC: plasma, po, 9 mg/kg.
Excerpt: as §4
The conditions of data set [4]: urine, rats, single 30 mg/kg oral.
The conditions of data set [5]: urine, dogs, single 9 mg/kg oral.
For data set [6] the following is noted: humans; oral; cited from earlier work.
The conditions of data set [7]: cited from earlier work.
Where [8] appears, read: 150 μM CPX-G, six-hour incubation, pooled urine from six NMIBC patients.

Turning to `Cc1cc(C2CCCCC2)n(O[C@H]2OC(C(=O)O)[C@H](O)C(O)C2O)c(=O)c1` (stereo partly drawn) [CPX-G, ciclopirox glucuronide], in the data set on β-glucuronidase (setting [8]), the “ciclopirox formed by hydrolysis” value was 7.9 µM and the formation rate was 5%. For the same molecule, the “extent of ciclopirox formation, patient urine vs healthy volunteer urine” value with β-glucuronidase (bladder cancer patient urine compared to healthy volunteers) is “approximately 11.6 fold”. In the data set on β-glucuronidase (pooled bladder cancer patient urine vs control urine), the “rate of β-glucuronidase-mediated hydrolysis, patient urine vs control urine” value is on record as 5.6-11.5 fold. Moreover, in the data set with 253JBV cells, the “effect on cell proliferation” value is on record as “did not show any significant effect”. The “effect on cell proliferation” value with T24 cells is “did not show any significant effect”.

Turning to `Cc1cc(C2CCCCC2)n(O)c(=O)c1` [CPX-O, ciclopirox olamine], in data set [1] (male, C57/Bl6, mouse), the C0 turned out to be 11300 ng/mL, the MRT is 15.5 min and the clearance is 108 mL/min/kg. Also, in data set [1] (male, C57/Bl6, mouse, read-out: Vss), the Vd turned out to be 1.68 L/kg. Also, in data set [1], the “AUMC0∫^n” value is listed as 358 ng*hr^2/mL, the “AUMC0∫^∞” value came to 401 ng*hr^2/mL and the Vdz was 5.7 L/kg. For the same molecule, the AUC in [2] (male, Sprague-Dawley, rat, 30 mg/kg, read-out: AUC0∫^n) came out at 211 ± 84.5 ng·h/mL. Moreover, the AUC in data set [2] (male, Sprague-Dawley, rat, 30 mg/kg, read-out: AUC0∫^∞) was found to be 378 ± 140 ng·h/mL. Also, in data set [2] (male, Sprague-Dawley, rat), the Cmax came out at 373 ± 158 ng/mL, the Tmax was 15 ± 7.74 min and the half-life was 48.1 ± 33.5 min. This molecule also came in with a Kel in data set [2] of 1.234 ± 0.742 h⁻¹. The F in data set [2] (reference IV CPX-POM, 30 mg/kg) is 4.6% and 4.56%. Moreover, the AUC in data set [3] (male, beagle, dog, read-out: AUC0∫^n) stood at 1900 ng·h/mL. Moreover, the AUC in data set [3] (male, beagle, dog, read-out: AUC0∫^∞) came out at 2700 ng·h/mL. In data set [3] (male, beagle, dog), the highest level (Cmax) was 1020 ng/mL, the Tmax is 15 ± 7.74 min and the half-life is 331 ± 23.4 min. Further, the Kel in data set [3] was 0.126 ± 0.009 h⁻¹. In data set [4], the FeCPX worked out at 0.25 ± 0.18%, the “Xe/dtCPX 0-8 hr” value was determined as 0.63 ± 0.16 µg/h, the “Xe/dtCPX 8-24 hr” value worked out at 1.08 ± 1.11 µg/h and the “XeCPX 0-24 hr” value turned out to be 22.30 ± 16.65 µg. For the same molecule, the “UCPX 0-24 hr” value in data set [4] (30 mg/kg) is 1,711 ± 1,427 ng/mL and 8.28 ± 6.89 μM. Besides, in data set [5], the FeCPX was 0.32 ± 0.21%, the “Xe/dtCPX 8-24 hr” value came out at 2.90 ± 1.70 µg/h and the “XeCPX 0-24 hr” value turned out to be 299 ± 208 µg. Moreover, the “UCPX 0-24 hr” value in data set [5] (9 mg/kg) was 1,602 ± 750^ ng/mL and 7.74 ± 3.62 μM. In data set [6], the “dose excreted in urine within 6 hours” value is listed as 87%; the “dose excreted in urine within 12 hours” value was “approximately 95%”; the “dose in urine identified as ciclopirox” value is reported as 4%; the “dose in urine identified as ciclopirox and ciclopirox glucuronide” value was 83%. For the same molecule, in [6], the “dose in urine identified as ciclopirox glucuronide” value is 79%. Also, in data set [7] (80 mg/m^2 oral, once daily), the tolerability entry is “well tolerated”. In data set [7] (oral, four times daily), the toxicity entry is on record as “dose-limiting gastrointestinal toxicity”.
